According to patent US20080031982A1 (Metaproteomics, LLC, priority 2006, published 2008):

Experiments:
Test in all cases: KinaseProfiler Assay
ErbB4 = ErbB4 (Homo sapiens, UniProt Q15303)
TrkB = TrkB (Homo sapiens, UniProt Q16620)
ZIPK = ZIPK (Homo sapiens, UniProt O43293)
Ron = Ron (Homo sapiens, UniProt Q04912)
EphA2 = EphA2 (Homo sapiens, UniProt P29317)
IKKβ = biological target: T1, IKKβ (Homo sapiens, UniProt O14920)
T1 sequence (O14920 1-756): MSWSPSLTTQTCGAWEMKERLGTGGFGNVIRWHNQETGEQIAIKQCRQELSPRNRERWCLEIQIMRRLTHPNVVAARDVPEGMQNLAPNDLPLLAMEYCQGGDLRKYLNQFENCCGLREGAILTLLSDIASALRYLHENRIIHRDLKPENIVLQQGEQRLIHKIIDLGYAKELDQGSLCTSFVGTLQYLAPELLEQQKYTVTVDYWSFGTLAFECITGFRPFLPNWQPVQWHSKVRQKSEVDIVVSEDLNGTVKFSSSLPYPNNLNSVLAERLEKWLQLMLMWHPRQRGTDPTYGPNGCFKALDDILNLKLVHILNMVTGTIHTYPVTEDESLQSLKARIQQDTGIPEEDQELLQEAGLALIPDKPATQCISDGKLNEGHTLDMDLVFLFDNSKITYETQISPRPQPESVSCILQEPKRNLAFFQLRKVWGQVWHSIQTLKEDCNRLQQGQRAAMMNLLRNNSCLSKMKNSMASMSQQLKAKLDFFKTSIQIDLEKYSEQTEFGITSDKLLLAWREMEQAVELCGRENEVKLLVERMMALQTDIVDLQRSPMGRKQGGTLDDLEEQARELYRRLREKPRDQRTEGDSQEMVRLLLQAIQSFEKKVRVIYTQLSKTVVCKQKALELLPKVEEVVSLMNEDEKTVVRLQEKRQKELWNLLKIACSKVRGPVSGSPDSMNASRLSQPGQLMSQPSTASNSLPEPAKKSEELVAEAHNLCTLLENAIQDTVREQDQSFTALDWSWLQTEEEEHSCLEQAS

CHK1 = biological target: T2, CHK1 (Homo sapiens, UniProt O14757)
T2 sequence (O14757 1-476): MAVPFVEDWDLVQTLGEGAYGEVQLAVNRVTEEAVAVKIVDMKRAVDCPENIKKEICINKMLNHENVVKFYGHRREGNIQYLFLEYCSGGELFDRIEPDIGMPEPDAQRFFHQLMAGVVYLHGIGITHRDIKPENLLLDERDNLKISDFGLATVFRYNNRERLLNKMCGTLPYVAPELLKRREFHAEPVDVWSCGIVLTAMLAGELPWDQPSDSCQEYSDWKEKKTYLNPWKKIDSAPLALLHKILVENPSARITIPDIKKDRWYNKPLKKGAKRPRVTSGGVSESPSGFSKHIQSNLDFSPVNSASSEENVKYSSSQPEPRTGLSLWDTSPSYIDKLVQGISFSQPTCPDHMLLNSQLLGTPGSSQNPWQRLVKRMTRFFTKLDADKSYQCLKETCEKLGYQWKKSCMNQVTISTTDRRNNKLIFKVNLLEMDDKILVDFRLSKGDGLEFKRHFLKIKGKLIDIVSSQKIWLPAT

EphA8 = biological target: T3, EphA8 (Homo sapiens, UniProt P29322)
T3 sequence (P29322 28-1005): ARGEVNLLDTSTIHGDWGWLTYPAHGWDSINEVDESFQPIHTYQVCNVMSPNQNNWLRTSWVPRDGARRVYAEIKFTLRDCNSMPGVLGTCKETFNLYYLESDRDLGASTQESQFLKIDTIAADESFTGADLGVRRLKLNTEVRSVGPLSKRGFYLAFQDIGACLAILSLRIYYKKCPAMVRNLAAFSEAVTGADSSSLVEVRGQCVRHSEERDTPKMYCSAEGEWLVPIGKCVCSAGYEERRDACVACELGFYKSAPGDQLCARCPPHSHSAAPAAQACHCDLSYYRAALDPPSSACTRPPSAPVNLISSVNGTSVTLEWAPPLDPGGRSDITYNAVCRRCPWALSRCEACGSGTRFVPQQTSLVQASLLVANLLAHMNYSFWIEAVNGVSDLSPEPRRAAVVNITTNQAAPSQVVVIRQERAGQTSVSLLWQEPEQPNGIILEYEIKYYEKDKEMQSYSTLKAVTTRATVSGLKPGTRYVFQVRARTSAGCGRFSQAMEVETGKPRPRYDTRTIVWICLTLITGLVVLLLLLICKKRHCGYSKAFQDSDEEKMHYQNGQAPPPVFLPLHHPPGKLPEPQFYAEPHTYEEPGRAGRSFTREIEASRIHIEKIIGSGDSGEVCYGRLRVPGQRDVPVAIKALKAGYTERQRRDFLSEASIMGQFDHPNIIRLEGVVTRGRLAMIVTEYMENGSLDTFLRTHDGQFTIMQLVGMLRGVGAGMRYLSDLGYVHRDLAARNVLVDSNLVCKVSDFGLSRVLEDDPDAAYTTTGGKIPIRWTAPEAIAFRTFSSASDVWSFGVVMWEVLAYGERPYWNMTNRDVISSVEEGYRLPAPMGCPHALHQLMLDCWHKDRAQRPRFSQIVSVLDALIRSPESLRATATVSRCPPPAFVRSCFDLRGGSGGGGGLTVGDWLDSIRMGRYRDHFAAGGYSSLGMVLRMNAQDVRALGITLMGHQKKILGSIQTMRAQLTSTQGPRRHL

Sequence of TrkB (Q16620 32-822): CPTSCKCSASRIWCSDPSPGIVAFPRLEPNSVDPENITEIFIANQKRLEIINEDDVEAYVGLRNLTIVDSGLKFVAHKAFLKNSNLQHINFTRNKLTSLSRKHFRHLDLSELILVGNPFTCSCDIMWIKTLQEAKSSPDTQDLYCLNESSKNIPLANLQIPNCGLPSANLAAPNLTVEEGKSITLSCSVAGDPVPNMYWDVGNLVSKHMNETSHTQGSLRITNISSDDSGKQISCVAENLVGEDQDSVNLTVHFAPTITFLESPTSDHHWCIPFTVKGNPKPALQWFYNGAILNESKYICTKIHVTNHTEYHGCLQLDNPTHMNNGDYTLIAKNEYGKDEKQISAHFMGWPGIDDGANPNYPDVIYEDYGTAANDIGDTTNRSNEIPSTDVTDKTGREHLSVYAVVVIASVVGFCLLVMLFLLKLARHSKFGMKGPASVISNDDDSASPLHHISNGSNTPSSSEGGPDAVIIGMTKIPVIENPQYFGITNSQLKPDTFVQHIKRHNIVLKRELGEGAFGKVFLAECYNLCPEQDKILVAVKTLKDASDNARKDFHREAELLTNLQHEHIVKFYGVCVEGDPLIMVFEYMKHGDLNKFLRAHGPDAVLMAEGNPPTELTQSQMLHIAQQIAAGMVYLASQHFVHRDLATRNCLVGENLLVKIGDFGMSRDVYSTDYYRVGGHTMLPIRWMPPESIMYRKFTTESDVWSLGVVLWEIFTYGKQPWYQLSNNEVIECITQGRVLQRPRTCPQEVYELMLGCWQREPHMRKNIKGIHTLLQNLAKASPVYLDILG
Sequence of Ron (Q04912 25-1400): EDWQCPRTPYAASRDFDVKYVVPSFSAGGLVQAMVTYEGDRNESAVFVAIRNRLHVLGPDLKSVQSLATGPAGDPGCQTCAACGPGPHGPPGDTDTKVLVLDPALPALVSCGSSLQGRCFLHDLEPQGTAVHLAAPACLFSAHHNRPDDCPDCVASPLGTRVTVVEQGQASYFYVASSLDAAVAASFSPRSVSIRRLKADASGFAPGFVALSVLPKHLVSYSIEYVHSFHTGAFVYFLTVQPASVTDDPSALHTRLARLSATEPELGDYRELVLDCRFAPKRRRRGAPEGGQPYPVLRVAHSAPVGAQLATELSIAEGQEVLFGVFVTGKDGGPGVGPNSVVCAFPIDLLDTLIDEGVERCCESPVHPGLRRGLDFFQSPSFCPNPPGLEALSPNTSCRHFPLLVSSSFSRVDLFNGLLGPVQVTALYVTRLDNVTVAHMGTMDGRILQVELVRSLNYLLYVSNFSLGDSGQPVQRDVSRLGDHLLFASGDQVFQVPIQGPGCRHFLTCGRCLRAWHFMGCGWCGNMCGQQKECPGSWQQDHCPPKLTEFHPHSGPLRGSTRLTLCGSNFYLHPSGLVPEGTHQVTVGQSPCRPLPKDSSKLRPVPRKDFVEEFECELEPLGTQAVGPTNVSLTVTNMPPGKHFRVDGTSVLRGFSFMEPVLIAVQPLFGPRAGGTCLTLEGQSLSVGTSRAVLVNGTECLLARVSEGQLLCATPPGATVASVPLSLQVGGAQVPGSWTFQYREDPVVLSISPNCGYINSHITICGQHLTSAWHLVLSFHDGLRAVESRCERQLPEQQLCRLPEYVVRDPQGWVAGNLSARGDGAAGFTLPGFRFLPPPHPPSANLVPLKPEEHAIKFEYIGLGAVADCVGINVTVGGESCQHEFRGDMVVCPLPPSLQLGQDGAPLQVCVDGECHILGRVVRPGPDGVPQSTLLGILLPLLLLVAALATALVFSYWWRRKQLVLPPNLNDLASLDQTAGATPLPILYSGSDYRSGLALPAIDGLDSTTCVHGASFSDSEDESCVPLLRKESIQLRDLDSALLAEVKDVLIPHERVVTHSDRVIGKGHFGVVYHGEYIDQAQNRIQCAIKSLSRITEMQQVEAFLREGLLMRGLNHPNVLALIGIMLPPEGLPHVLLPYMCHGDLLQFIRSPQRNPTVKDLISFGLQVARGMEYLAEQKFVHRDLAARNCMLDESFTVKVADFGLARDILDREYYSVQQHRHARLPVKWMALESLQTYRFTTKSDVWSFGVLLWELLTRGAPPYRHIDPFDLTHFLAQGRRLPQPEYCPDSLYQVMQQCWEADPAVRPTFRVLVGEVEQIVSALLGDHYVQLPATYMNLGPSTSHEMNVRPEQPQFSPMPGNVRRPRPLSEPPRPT
Sequence of ErbB4 (Q15303 26-1308): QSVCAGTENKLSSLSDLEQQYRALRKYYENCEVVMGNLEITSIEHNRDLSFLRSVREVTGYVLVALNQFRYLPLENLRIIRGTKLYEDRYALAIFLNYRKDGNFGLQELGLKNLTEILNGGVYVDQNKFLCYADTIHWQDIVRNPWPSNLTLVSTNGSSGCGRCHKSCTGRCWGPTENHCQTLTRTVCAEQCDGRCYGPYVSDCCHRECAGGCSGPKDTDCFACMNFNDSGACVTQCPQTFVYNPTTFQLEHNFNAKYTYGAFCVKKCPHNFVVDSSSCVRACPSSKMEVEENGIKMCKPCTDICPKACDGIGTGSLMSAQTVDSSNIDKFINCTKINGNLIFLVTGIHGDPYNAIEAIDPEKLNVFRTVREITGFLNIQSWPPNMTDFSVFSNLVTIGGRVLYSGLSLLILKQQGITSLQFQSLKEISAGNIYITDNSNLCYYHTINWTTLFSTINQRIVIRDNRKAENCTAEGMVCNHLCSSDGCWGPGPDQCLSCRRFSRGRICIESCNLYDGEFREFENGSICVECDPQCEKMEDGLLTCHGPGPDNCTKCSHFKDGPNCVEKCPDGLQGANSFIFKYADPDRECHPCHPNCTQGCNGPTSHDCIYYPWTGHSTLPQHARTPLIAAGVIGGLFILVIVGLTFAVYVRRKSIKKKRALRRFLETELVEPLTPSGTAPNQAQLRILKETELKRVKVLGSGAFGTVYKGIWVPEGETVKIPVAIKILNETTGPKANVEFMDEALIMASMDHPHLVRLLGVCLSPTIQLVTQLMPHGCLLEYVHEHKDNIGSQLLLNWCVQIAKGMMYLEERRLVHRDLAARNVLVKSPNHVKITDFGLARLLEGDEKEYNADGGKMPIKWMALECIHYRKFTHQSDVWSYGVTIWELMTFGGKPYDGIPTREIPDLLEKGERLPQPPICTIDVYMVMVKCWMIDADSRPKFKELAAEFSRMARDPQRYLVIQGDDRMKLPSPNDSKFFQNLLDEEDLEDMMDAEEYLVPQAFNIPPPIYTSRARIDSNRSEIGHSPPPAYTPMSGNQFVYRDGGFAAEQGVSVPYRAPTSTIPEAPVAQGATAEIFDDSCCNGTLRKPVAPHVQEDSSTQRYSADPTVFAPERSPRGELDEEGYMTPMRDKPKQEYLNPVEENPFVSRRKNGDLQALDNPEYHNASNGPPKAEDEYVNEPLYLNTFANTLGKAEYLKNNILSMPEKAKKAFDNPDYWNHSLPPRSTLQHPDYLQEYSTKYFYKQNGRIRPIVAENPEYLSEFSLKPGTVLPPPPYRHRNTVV
Sequence of EphA2 (P29317 24-976): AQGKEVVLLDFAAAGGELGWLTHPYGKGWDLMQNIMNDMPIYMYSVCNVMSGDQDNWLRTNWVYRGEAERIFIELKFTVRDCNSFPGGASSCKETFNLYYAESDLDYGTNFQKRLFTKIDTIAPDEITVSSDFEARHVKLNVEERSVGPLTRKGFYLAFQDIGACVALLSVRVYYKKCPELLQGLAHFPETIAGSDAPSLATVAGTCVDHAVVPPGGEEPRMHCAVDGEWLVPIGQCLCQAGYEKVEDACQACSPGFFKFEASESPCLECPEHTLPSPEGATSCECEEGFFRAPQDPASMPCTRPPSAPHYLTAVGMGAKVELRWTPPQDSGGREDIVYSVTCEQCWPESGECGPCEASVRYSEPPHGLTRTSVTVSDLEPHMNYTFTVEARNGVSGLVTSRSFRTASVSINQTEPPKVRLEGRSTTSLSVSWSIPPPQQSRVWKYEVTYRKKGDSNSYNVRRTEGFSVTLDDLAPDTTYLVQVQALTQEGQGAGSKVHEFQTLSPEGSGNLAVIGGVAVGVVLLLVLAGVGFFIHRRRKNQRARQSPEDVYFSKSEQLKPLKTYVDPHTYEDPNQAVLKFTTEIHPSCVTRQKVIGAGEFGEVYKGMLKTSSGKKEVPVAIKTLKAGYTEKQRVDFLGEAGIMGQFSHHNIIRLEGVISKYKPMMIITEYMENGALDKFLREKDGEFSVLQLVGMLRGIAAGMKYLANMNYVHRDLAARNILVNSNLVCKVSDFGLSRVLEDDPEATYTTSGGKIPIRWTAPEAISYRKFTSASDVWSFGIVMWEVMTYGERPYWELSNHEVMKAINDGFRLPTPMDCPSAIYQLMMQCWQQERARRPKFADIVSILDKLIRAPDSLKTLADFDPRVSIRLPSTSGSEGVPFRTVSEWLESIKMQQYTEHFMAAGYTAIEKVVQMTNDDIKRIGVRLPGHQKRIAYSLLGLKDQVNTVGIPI
Sequence of ZIPK (O43293 whole entry): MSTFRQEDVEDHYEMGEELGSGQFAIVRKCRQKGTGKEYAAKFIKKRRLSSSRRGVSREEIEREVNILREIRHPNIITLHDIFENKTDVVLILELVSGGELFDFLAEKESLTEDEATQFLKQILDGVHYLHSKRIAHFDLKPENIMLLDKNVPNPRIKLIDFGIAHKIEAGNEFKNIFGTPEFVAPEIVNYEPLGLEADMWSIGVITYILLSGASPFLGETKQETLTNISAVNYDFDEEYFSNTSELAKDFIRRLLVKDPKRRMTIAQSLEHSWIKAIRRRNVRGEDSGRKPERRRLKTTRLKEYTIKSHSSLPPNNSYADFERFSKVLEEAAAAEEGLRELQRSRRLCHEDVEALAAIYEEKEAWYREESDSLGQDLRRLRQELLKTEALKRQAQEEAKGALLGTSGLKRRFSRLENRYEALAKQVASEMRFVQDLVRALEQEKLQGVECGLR

Which results are given for `COc1cc(O)c(CC=C(C)C)c(O)c1C(=O)/C=C/c1ccc(O)cc1` [Xanthohumol, xanthohumol]?
Kinase activity, % of Control (ErbB4; 1 ug/ml): 132 % of Control; Kinase activity, % of Control (ErbB4; 5 ug/ml): 85 % of Control; Kinase activity, % of Control (ErbB4; 25 ug/ml): 52 % of Control; Kinase activity, % of Control (ErbB4; 50 ug/ml): 27 % of Control; Kinase activity, % of Control (TrkB; 1 ug/ml): 95 % of Control; Kinase activity, % of Control (TrkB; 5 ug/ml): 89 % of Control; Kinase activity, % of Control (TrkB; 25 ug/ml): 58 % of Control; Kinase activity, % of Control (TrkB; 50 ug/ml): 3 % of Control; Kinase activity, % of Control (ZIPK; 1 ug/ml): 115 % of Control; Kinase activity, % of Control (ZIPK; 5 ug/ml): 74 % of Control; Kinase activity, % of Control (ZIPK; 25 ug/ml): 20 % of Control; Kinase activity, % of Control (ZIPK; 50 ug/ml): 70 % of Control; Kinase activity, % of Control (Ron; 1 ug/ml): 135 % of Control; Kinase activity, % of Control (Ron; 5 ug/ml): 127 % of Control; Kinase activity, % of Control (Ron; 25 ug/ml): 60 % of Control; Kinase activity, % of Control (Ron; 50 ug/ml): 69 % of Control; Kinase activity, % of Control (EphA2; 1 ug/ml): 124 % of Control; Kinase activity, % of Control (EphA2; 25 ug/ml): 121 % of Control; Kinase activity, % of Control (EphA2; 50 ug/ml): 52 % of Control; Kinase activity, % of Control (IKKβ; 1 ug/ml): 145 % of Control; Kinase activity, % of Control (IKKβ; 5 ug/ml): 118 % of Control; Kinase activity, % of Control (IKKβ; 25 ug/ml): 61 % of Control; Kinase activity, % of Control (IKKβ; 50 ug/ml): 44 % of Control; Kinase activity, % of Control (CHK1; 1 ug/ml): 121 % of Control; Kinase activity, % of Control (CHK1; 5 ug/ml): 126 % of Control; Kinase activity, % of Control (CHK1; 25 ug/ml): 142 % of Control; Kinase activity, % of Control (CHK1; 50 ug/ml): 149 % of Control; Kinase activity, % of Control (EphA8; 1 ug/ml): 103 % of Control; Kinase activity, % of Control (EphA8; 5 ug/ml): 92 % of Control; Kinase activity, % of Control (EphA8; 25 ug/ml): 29 % of Control; Kinase activity, % of Control (EphA8; 50 ug/ml): 19 % of Control
